Holding throughout (assay): DTP human tumour cell line panel, 48 h
Assay [1] relates to COLO 205 colon.
The test system of assay [2] is LOX IMVI melanoma.
Assay [3] relates to MCF7 breast.
For assay [4], the system named is NCI-H460 lung.
Assay [5] has as its system NCI-H522 lung.
In assay [6] the test system is OVCAR-4 ovarian.
The subject of assay [7] is RPMI-8226 leukemia.
Assay [8] has as its system SNB-19 CNS.

“And” between values parts separate entries of the source, which are not always exact repeats. Equal entries are not always repeated.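 Five compound concentrations were applied to cells in 96-well plates for 48 hours; endpoints were derived by simple linear interpolation of the resulting dose-response curve. The concentration for 50% growth inhibition is given as GI50. TGI marks complete inhibition of growth.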

On to `COc1cc2c(cc1OC)-c1ncc3cc(OC)c(OC)cc3c1C2`, for which the GI50 – broadly, the concentration that inhibits growth by half – was greater than 50 µM in assay [1]; greater than 50 µM in assay [2]; greater than 50 µM in assay [3]; greater than 50 µM in assay [4]; 24.5 µM in assay [5]; greater than 50 µM in assay [6]. Besides, the figures for the GI50 in assay [7] and in assay [8] were 14 µM and greater than 50 µM, respectively. The TGI in assay [1], in assay [2], in assay [3], in assay [4], in assay [5] and in assay [6] was greater than 50 µM in each case. Also, the total growth inhibition concentration (TGI) in assay [7] and in assay [8] was greater than 50 µM each time.

As to `COC(=O)[C@H](Cc1cn(C)cn1)NC(=O)[C@@H](NC(=O)Nc1cc(C(F)(F)F)cc(C(F)(F)F)c1)C(C)(C)C`, the GI50 in assay [1], in assay [2], in assay [3], in assay [4], in assay [6] and in assay [7] was greater than 10 µM in each case. For the same molecule, the GI50 in assay [8] is greater than 10 µM. The concentration for total growth inhibition (TGI) in assay [1], in assay [2], in assay [3], in assay [4], in assay [6] and in assay [7] was greater than 10 µM in each case. Further, the TGI (in general, the concentration at which net growth stops) in assay [8] was greater than 10 µM.

For `Cc1nc2ccccc2c(/C=C/c2ccccc2)c1C(=O)/C=C/c1ccccc1`, the GI50 is 1.82 µM in assay [1], 1.77 µM in assay [2], 1.88 µM in assay [4] and 1.6 µM in assay [8]. In addition, the concentration for total growth inhibition (TGI) in assay [1] is 4.44 µM; in assay [2], 3.19 µM; in assay [4] it was 4.88 µM; in assay [8], 2.96 µM.

In the case of `CCCC(=O)Nc1c(I)cc(I)c(CC(CC)C(=O)O)c1I` (stereo not drawn), the GI50 in assay [1], in assay [2], in assay [3], in assay [4], in assay [5] and in assay [6] was greater than 100 µM throughout. The GI50 in assay [7] and in assay [8] was greater than 100 µM throughout. Besides, the total growth inhibition concentration (TGI) in assay [1], in assay [2], in assay [3], in assay [4], in assay [5] and in assay [6] was greater than 100 µM in each case. Besides, the TGI in assay [7] and in assay [8] was greater than 100 µM throughout.

Turning to `CCCCCCCCCCCCC(NC(C)=O)(C(=O)OCC)C(=O)OCC`, the GI50 in assay [1] was 12.8 µM; in assay [2], 11.8 µM; in assay [3] it was 7.41 µM; in assay [4], 7.65 µM; in assay [6] it was 10.4 µM; in assay [7] it was 10.8 µM. In addition, in assay [8], the GI50 was 12.8 µM. Besides, the TGI in assay [1] turned out to be 26.3 µM; in assay [2] it was 25.2 µM; in assay [3], 21.2 µM; in assay [4] it was 24 µM; in assay [6] it was 22.2 µM; in assay [7] it was 44.8 µM. The same molecule registered a TGI in assay [8] of 25.6 µM.

For the molecule `Cc1ccccc1C[P+](c1ccccc1)(c1ccccc1)c1ccccc1`, the GI50 was 1.16 µM in assay [1]; 1.09 µM in assay [2]; 0.649 µM in assay [3]; 1.73 µM in assay [4]; 0.78 µM in assay [5]; 0.64 µM in assay [6]. For the same molecule, the values for the GI50 in assay [7] and in assay [8] were 0.39 µM and 2.07 µM, respectively. The concentration for total growth inhibition (TGI) was 3.28 µM in assay [1]; greater than 100 µM in assay [2]; 39.6 µM in assay [3]; 12.9 µM in assay [4]; 5.73 µM in assay [5]; 9.39 µM in assay [6]. In addition, the TGI was 5.4 µM in assay [7] and greater than 100 µM in assay [8].

In the case of `N#Cc1ccc(NC(=O)Nc2nc3ccc(OC(F)(F)F)cc3s2)cc1`, the GI50 in assay [1] is 1.68 µM; in assay [2], 1.47 µM; in assay [3], 1 µM; in assay [4], 0.605 µM; in assay [5], 0.427 µM; in assay [6], 1.64 µM. Also, the GI50 in assay [7] is 1 µM; in assay [8] it was 1.5 µM. Also, the TGI came to 3.9 µM in assay [1]; 4.67 µM in assay [2]; 11.6 µM in assay [3]; 7.81 µM in assay [4]; 3.09 µM in assay [5]; 44 µM in assay [6]. Besides, the concentration for total growth inhibition (TGI) in assay [7] worked out at 13.3 µM; in assay [8], 13.9 µM.

With `CC1=CC2=C(C#N)C(=O)OC2(C)C(c2ccccc2)C1` (stereo not drawn), the TGI in assay [2], in assay [4], in assay [5], in assay [6], in assay [7] and in assay [8] was greater than 100 µM throughout.

On to `COc1ccc(-c2cc(-c3ccc(Cl)cc3)nc(SCCCCCCC(=O)NO)n2)cc1`, for which the GI50 in assay [1] is 1.88 µM; in assay [2], 1.22 µM; in assay [3], 1.73 µM; in assay [4] it was 1.29 µM; in assay [5], 1.2 µM; in assay [6], 2.05 µM. Further, the figures for the GI50 in assay [7] and in assay [8] were 1.12 µM and 1.67 µM, respectively. Moreover, the TGI was 11.5 µM in assay [1]; 3.05 µM in assay [2]; greater than 50 µM in assay [3]; 8.9 µM in assay [4]; 7.86 µM in assay [5]; 43.1 µM in assay [6]. Further, the TGI in assay [7] is greater than 50 µM; in assay [8], 23.6 µM.

In the case of `CCCCCCC(O)C(O)CCC(O)C1CCC(CCCCC(O)CC2=CC(C)OC2=O)O1` (stereo not drawn), the GI50 in assay [1] is 14.4 µM; in assay [2] it was 4.48 µM; in assay [3], 10.1 µM; in assay [4], 10.5 µM; in assay [8], 14.2 µM. For the same molecule, the concentration for total growth inhibition (TGI) in assay [1] was 4.36 µM and 29.7 µM; in assay [2], 5.02 µM and 27.7 µM; in assay [3], 28 µM; in assay [4], 26.9 µM; in assay [5], 22.8 µM; in assay [6], 39.6 µM. Moreover, the concentration for total growth inhibition (TGI) in assay [7] worked out at 30.6 µM; in assay [8], 38.8 µM.

Take `COc1c(N2CCN(CN3C(=O)C(=O)c4ccccc43)C(C)C2)c(F)cc2c(=O)c(C(=O)O)cn(C3CC3)c12` (stereo not drawn): the GI50 in assay [1] is 66.5 µM; in assay [2] it was 71.2 µM; in assay [3] it was 33.8 µM; in assay [4], 43.4 µM; in assay [5], greater than 100 µM; in assay [6], greater than 100 µM. For the same molecule, the GI50 in assay [7] is 78.7 µM; in assay [8] it was greater than 100 µM. Further, the TGI in assay [1], in assay [2], in assay [3], in assay [4], in assay [5] and in assay [6] was greater than 100 µM throughout. Also, the TGI in assay [7] and in assay [8] was greater than 100 µM throughout.

As to `C=C1C(=O)O[C@H]2[C@H]1CC/C(Cn1cc(-c3ccsc3)nn1)=C\CC[C@@]1(C)O[C@@H]21`, the GI50 in assay [1] was 1.45 µM; in assay [2], 1.28 µM; in assay [4], 4.71 µM; in assay [5] it was 1.39 µM; in assay [6], 2.48 µM; in assay [8], 9.49 µM. Further, the TGI was 3.24 µM in assay [1]; 2.61 µM in assay [2]; 18.9 µM in assay [4]; 3.17 µM in assay [5]; 7.61 µM in assay [6]; 23.2 µM in assay [8].

Take `CNC(=S)N(C1CCCCC1)C1CCCCC1`: the TGI in assay [1], in assay [2], in assay [3], in assay [4], in assay [6] and in assay [7] was greater than 100 µM throughout. Further, in assay [8], the TGI was greater than 100 µM.

As to `CCOC(=O)C(=O)C(/C(=N/N(C)C)C(=O)Nc1ccc(C)cc1C)c1nc2ccccc2[nH]c1=O` (stereo not drawn), the TGI in assay [2], in assay [3], in assay [4], in assay [5], in assay [6] and in assay [7] was greater than 100 µM throughout. The TGI in assay [8] is greater than 100 µM.

As to `O=C(Nc1ccc(N2CCNCC2)cn1)c1[nH]ncc1Nc1ncnc2sccc12`, the GI50 in assay [1] is 1.72 µM; in assay [3] it was 1.71 µM; in assay [4] it was 1.73 µM; in assay [5], 1.87 µM; in assay [6], 1.69 µM; in assay [7], 2.32 µM. Further, the TGI in assay [1] came out at 3.88 µM; in assay [3], 4.17 µM; in assay [4], 3.57 µM; in assay [5], 4.36 µM; in assay [6] it was 3.63 µM; in assay [7] it was 6.71 µM.

Take `CCC(=O)Nc1ncnc2ncn(C(=O)CC)c12`: the concentration for total growth inhibition (TGI) in assay [2], in assay [3], in assay [4], in assay [5], in assay [6] and in assay [7] was greater than 100 µM each time. The same molecule had a TGI in assay [8] greater than 100 µM.

For the molecule `O=c1c(-c2nc3ccccc3[nH]2)cc2ccccc2n1Cc1cn(Cc2ccccc2Cl)nn1`, the GI50 in assay [3] is 1.78 µM; in assay [4] it was 2.01 µM; in assay [5] it was 2.24 µM; in assay [6], 1.72 µM; in assay [7] it was 3.02 µM; in assay [8] it was 4.32 µM. The TGI in assay [3] came to 3.77 µM; in assay [4] it was 3.88 µM; in assay [5], 7.98 µM; in assay [6], 3.44 µM; in assay [7] it was 10.8 µM; in assay [8] it was 28.3 µM.

Take `COc1cc(=O)oc(/C=C/C=C/C=C/C(C)=C\C2(C)OC(C)C(C)(O)C2O)c1C` (stereo not drawn): the TGI in assay [1], in assay [2], in assay [3], in assay [4], in assay [7] and in assay [8] was greater than 100 µM in each case.

In the case of `C[C@@]1(O)CCC[C@H]1n1c(=O)c(C(F)F)cc2cnc(NC3CCN(S(C)(=O)=O)CC3)nc21`, the GI50 is 1.28 µM in assay [2]; 0.109 µM in assay [4]; 2.66 µM in assay [5]; 1.76 µM in assay [6]; 1.11 µM in assay [7]; 1.34 µM in assay [8]. The TGI in assay [2] was greater than 100 µM; in assay [4], 11.9 µM; in assay [5], 15.3 µM; in assay [6] it was greater than 100 µM; in assay [7], 8.64 µM; in assay [8], 16.8 µM.

Turning to `COc1cccc(NC(=O)c2ccc(NC3=C(Cl)C(=O)N(Cc4ccccc4)C3=O)cc2)c1`, the GI50 in assay [1] is 23.7 µM; in assay [2] it was 2.71 µM; in assay [3], 3.9 µM; in assay [4], 12.3 µM; in assay [5], 2.49 µM; in assay [6], 22 µM. For the same molecule, the GI50 in assay [8] is 19.1 µM. Further, the TGI was greater than 100 µM in assay [1]; 9.11 µM in assay [2]; 17.8 µM in assay [3]; 30.4 µM in assay [4]; 8.87 µM in assay [5]; greater than 100 µM in assay [6]. Also, the total growth inhibition concentration (TGI) in assay [8] was determined as 60.1 µM.

Turning to `CC(C)C1=CC23CCC4C(C)(C(=O)O)CCCC4(C)C2CC1C1C(=O)N(c2cccc(N4C(=O)C5C6CC7C8(C)CCCC(C)(C(=O)O)C8CCC7(C=C6C(C)C)C5C4=O)c2)C(=O)C13` (stereo not drawn), the TGI in assay [1] is 23.8 µM; in assay [3], 16 µM; in assay [5], 29.7 µM; in assay [6] it was greater than 100 µM.

With `COc1cc2c(cc1OC)-c1ncc3cc(OC)c(OC)c(OC)c3c1C2`, the GI50 in assay [1] was 27.7 µM; in assay [2], 16.8 µM; in assay [4], 31.6 µM; in assay [5] it was 10.3 µM; in assay [6], 62.6 µM; in assay [7], 3.4 µM. The GI50 in assay [8] was 79.9 µM. Further, the TGI is greater than 100 µM in assay [1]; 35.8 µM in assay [2]; greater than 100 µM in assay [4]; 41.7 µM in assay [5]; greater than 100 µM in assay [6]; 23.1 µM in assay [7]. Moreover, the TGI in assay [8] is greater than 100 µM.

`CCOC(=O)c1csc(-c2nc(CCNC(=O)c3ccccc3)sc2Cl)n1`: the total growth inhibition concentration (TGI) in assay [1], in assay [3], in assay [4], in assay [7] and in assay [8] was greater than 100 µM each time.

These data come from PubChem BioAssay (NCI).
